± gives the expanded uncertainty stated by the source.
Assays:
[1] = Crystal; DTA
[2] = Molar enthalpy of transition or fusion; conditions: Crystal; DSC

Structure (SMILES) | Normal melting temperature [1] [°C] | Molar enthalpy of transition or fusion [2] [kcal/mol]
CCOC(=O)c1ccc(O)cc1 [ethyl 4-hydroxybenzoate] | 115.50 ± 0.5 | 6.16 ± 0.179
CCCOC(=O)c1ccc(O)cc1 [propyl 4-hydroxybenzoate] | 96.40 ± 0.5 | 6.34 ± 0.182

Source: the NIST ThermoML archive (doi:10.1016/j.fluid.2014.05.036)
